A word on the IC50: it is the concentration needed to halve the response being measured. Higher therefore signals weaker potency in that assay.

The values below come from patent publication US10214519B2, “Phosphatidylinositol 3-kinase inhibitors” (Gilead Sciences, Inc., priority 2016, dated 2019).

Structures are written as SMILES.

This experiment has as its target PI3Kβ (Homo sapiens (Human), UniProt P42338). Briefly: PI3K isoform TR-FRET enzymatic assay (PI3Kβ). The format is biochemical. Conditions: 2× Km ATP, 30 minutes at 25° C. The gist of the method:
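Heterodimeric recombinant PI3Kβ was incubated with compound 30 minutes at 25° C. Product was detected by TR-FRET competition with 10 nM labeled PIP3 for 35 nM Eu-GRP-1 PH domain after EDTA stop. Data were normalized to 1 μM wortmannin and DMSO, and IC50 was taken from a four-parameter fit.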
(Time-resolved FRET reads energy transfer from a long-lived donor to a nearby acceptor.)

PI3Kβ, sequence (P42338 whole entry, the tested form may be a part, canonical isoform): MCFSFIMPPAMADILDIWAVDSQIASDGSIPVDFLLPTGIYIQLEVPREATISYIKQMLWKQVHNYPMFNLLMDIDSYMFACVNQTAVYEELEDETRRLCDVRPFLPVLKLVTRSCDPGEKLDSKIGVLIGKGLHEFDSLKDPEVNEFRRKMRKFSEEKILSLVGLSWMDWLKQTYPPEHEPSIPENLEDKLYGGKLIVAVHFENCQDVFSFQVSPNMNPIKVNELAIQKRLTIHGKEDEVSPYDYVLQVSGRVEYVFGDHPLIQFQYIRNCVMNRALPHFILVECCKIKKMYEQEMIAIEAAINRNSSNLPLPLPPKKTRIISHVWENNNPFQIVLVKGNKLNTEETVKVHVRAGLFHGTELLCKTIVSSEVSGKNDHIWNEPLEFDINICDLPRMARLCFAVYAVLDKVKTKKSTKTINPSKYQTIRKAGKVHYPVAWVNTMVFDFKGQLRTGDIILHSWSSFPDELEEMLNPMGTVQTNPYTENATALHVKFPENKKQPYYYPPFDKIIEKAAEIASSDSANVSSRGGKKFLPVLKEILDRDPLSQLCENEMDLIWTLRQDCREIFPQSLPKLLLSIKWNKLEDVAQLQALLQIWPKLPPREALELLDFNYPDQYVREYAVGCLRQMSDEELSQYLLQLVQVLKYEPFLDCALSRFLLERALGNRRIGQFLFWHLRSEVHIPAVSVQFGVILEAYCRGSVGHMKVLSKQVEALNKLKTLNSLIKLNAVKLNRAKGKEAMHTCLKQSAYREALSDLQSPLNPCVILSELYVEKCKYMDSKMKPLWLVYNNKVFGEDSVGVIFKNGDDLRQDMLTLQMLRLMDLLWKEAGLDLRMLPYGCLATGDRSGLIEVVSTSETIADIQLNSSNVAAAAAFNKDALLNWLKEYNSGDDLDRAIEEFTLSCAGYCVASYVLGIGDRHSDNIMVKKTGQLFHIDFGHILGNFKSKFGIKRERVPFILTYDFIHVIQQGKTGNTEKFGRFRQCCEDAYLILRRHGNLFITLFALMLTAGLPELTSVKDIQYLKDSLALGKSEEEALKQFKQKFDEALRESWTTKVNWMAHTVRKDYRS
PI3Kβ, sequence (P27986 whole entry partner, the tested form may be a part, canonical isoform): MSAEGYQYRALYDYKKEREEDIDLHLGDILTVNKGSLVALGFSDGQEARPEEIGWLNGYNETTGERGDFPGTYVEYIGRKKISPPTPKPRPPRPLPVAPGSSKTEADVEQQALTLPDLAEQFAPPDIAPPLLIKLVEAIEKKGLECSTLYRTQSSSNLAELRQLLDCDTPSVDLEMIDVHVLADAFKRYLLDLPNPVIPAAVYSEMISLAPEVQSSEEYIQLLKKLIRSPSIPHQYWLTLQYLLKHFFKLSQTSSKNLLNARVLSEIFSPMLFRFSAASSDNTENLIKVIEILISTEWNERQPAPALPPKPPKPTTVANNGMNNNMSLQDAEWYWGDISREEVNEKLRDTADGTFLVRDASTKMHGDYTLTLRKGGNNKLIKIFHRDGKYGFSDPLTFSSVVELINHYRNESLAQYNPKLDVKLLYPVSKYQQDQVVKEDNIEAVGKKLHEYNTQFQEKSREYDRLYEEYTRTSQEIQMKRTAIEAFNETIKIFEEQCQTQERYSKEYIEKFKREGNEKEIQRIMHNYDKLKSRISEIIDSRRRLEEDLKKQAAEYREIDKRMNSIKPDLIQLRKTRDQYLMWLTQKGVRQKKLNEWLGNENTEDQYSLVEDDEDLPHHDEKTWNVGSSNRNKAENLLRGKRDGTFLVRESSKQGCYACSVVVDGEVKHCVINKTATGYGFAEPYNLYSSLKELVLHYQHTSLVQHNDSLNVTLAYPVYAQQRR

With `COCCc1nc2c(-c3nnc[nH]3)cc(N3CCOCC3)cc2n1-c1ccnc2c(Cl)cccc12` [Example 116, 4-[3-(8-chloroquinolin-4-yl)-2-(2-methoxyethyl)-7-(4H-1,2,4-triazol-3-yl)benzimidazol-5-yl]morpholine], inhibition was half-maximal at 21 nM (IC50).
`Cc1nc2c(-c3nnc[nH]3)cc(N3CCOCC3)cc2n1-c1ccnc2c(F)ccc(Cl)c12` [Example 126, 4-[3-(5-chloro-8-fluoroquinolin-4-yl)-2-methyl-7-(4H-1,2,4-triazol-3-yl)benzimidazol-5-yl]morpholine] displayed an IC50 of 21 nM.
The value for `Clc1ncc(-c2cc(N3CCOCC3)cc3c2nc(C2COC2)n3-c2ccnc3c(Cl)cccc23)[nH]1` [Example 291, 4-[7-(2-chloro-1H-imidazol-5-yl)-3-(8-chloroquinolin-4-yl)-2-(oxetan-3-yl)benzimidazol-5-yl]morpholine] was 27 nM.
The value for `CCCc1nc2c(-c3nnc[nH]3)cc(N3CCOCC3)cc2n1-c1ccnc2ccccc12` [Example 41, 4-(2-propyl-1-(quinolin-4-yl)-4-(4H-1,2,4-triazol-3-yl)-1H-benzo[d]imidazol-6-yl)morpholine] was 21 nM; that for `Cc1cnc(-c2cc(N3CCOCC3)cc3c2nc(C)n3-c2ccnc3c(Cl)cccc23)s1` [Example 215, 4-[3-(8-chloroquinolin-4-yl)-2-methyl-7-(5-methyl-1,3-thiazol-2-yl)benzimidazol-5-yl]morpholine] was 630 nM; that for `Cc1nc2c(-c3ncco3)cc(N3CCOCC3)cc2n1-c1ccnc2c(F)cccc12` [Example 200, 4-(1-(8-fluoroquinolin-4-yl)-2-methyl-4-(oxazol-2-yl)-1H-benzo[d]imidazol-6-yl)morpholine] was 9 nM.
The value for `Cc1nnc(-c2cc(N3CCOCC3)cc3c2nc(-c2cccnc2)n3-c2ccnc3c(Cl)cccc23)[nH]1` [Example 23, 4-(1-(8-chloroquinolin-4-yl)-4-(5-methyl-4H-1,2,4-triazol-3-yl)-2-(pyridin-3-yl)-1H-benzo[d]imidazol-6-yl)morpholine] was 390 nM.
In turn, `Cc1nc2c(-c3cc[nH]n3)cc(N3CCOCC3)cc2n1-c1ccnc2c(Cl)cccc12` [Example 262, 4-[3-(8-chloroquinolin-4-yl)-2-methyl-7-(1H-pyrazol-3-yl)benzimidazol-5-yl]morpholine] registered an IC50 of 27 nM.
Then `Cc1nc2c(-c3nnn[nH]3)cc(N3CCOCC3)cc2n1-c1ccnc2c(Cl)cccc12` [Example 161], with 23 nM; and `Cc1nc2c(-c3ncco3)cc(N3CCOCC3)cc2n1-c1ccnc2c(Cl)cccc12` [Example 204, 4-[3-(8-chloroquinolin-4-yl)-2-methyl-7-(1,3-oxazol-2-yl)benzimidazol-5-yl]morpholine], with 8 nM.
`Cc1cccc2nccc(-n3cnc4c(-c5nnc[nH]5)cc(N5CCOCC5)cc43)c12` [Example 127, 4-[3-(5-methylquinolin-4-yl)-7-(4H-1,2,4-triazol-3-yl)benzimidazol-5-yl]morpholine] displayed an IC50 of 23 nM.
The value for `Cc1csc(-c2cc(N3CCOCC3)cc3c2nc(C)n3-c2ccnc3c(Cl)ccc(F)c23)n1` [Example 238, 4-[3-(8-chloro-5-fluoroquinolin-4-yl)-2-methyl-7-(4-methyl-1,3-thiazol-2-yl)benzimidazol-5-yl]morpholine] was 4 nM; that for `CCc1nc2c(-c3cnc(Cl)[nH]3)cc(N3CCOCC3)cc2n1-c1ccnc2c(Cl)c(F)ccc12` [Example 295, 4-[3-(8-chloro-7-fluoroquinolin-4-yl)-7-(2-chloro-1H-imidazol-5-yl)-2-ethylbenzimidazol-5-yl]morpholine] was 12 nM.
Then `Clc1cccc2c(-n3c(C4CCC4)nc4c(-c5nnc[nH]5)cc(N5CCOCC5)cc43)ccnc12` [Example 30, 4-(1-(8-chloroquinolin-4-yl)-2-cyclobutyl-4-(4H-1,2,4-triazol-3-yl)-1H-benzo[d]imidazol-6-yl)morpholine], with 8 nM; and `Cc1nc2c(-c3nnc[nH]3)cc(N3CCOCC3)cc2n1-c1ccnc2c(Cl)cccc12` (atropisomer, axis not shown) [Compound 360, 4-[3-(8-chloroquinolin-4-yl)-2-methyl-7-(4H-1,2,4-triazol-3-yl)benzimidazol-5-yl]morpholine], with 2800 nM.
The value for `CCc1nc2c(-c3cnc(C)[nH]3)cc(N3CCOCC3)cc2n1-c1ccnc2c(Cl)cccc12` [Example 245, 4-[3-(8-chloroquinolin-4-yl)-2-ethyl-7-(2-methyl-1H-imidazol-5-yl)benzimidazol-5-yl]morpholine] was 21 nM; that for `Cc1nnc(-c2cc(N3CCOCC3)cc3c2nc(C)n3-c2ccnc3c(Cl)c(F)ccc23)[nH]1` [Example 52, 4-(1-(8-chloro-7-fluoroquinolin-4-yl)-2-methyl-4-(5-methyl-4H-1,2,4-triazol-3-yl)-1H-benzo[d]imidazol-6-yl)morpholine] was 15 nM; that for `CCc1nc2c(-c3nnc(C)[nH]3)cc(N3CCOCC3)cc2n1-c1ccnc2c(F)ccc(F)c12` [Example 152, 4-(1-(5,8-difluoroquinolin-4-yl)-2-ethyl-4-(5-methyl-4H-1,2,4-triazol-3-yl)-1H-benzo[d]imidazol-6-yl)morpholine] was 59 nM.
As for `Cc1nnc(-c2cc(N3CCOCC3)cc3c2nc(C)n3-c2c(Cl)cnc3c(Cl)cccc23)[nH]1` [Example 157, 4-(1-(3,8-dichloroquinolin-4-yl)-2-methyl-4-(5-methyl-4H-1,2,4-triazol-3-yl)-1H-benzo[d]imidazol-6-yl)morpholine], half-maximal inhibition (IC50) was put at 47 nM. The IC50 values of the last two compounds are within 1.5-fold of each other.
Then `Fc1cccc2c(-n3c(CC4CC4)nc4c(-c5ncco5)cc(N5CCOCC5)cc43)ccnc12` [Example 225, 4-[2-(cyclopropylmethyl)-3-(8-fluoroquinolin-4-yl)-7-(1,3-oxazol-2-yl)benzimidazol-5-yl]morpholine], with 18 nM.
The value for `Cc1cnc2c(C#N)cccc2c1-n1c(C)nc2c(-c3nnc[nH]3)cc(N3CCOCC3)cc21` (atropisomer, axis not shown) [Compound 374, 3-methyl-4-(2-methyl-6-morpholino-4-(4H-1,2,4-triazol-3-yl)-1H-benzo[d]imidazol-1-yl)quinoline-8-carbonitrile] was 22 nM.
The value for `Cc1nnc(-c2cc(N3CCOCC3)cc3c2nc(C)n3-c2ccnc3c(F)ccc(F)c23)[nH]1` (atropisomer, axis not shown) [Compound 350, (S)-4-(1-(5,8-difluoroquinolin-4-yl)-2-methyl-4-(5-methyl-4H-1,2,4-triazol-3-yl)-1H-benzo[d]imidazol-6-yl)morpholine] was 10 nM.
With `Cc1cc(-n2cnc3c(-c4cnc[nH]4)cc(N4CCOCC4)cc32)c2c(Cl)ccc(Cl)c2n1` [Example 330], the IC50 turned out to be 5 nM.
Then `CCCc1nc2c(-c3nccs3)cc(N3CCOCC3)cc2n1-c1ccnc2c(F)ccc(F)c12` [Example 239, 4-[3-(5,8-difluoroquinolin-4-yl)-2-propyl-7-(1,3-thiazol-2-yl)benzimidazol-5-yl]morpholine], with 12 nM.
Then `Cc1nc2c(-c3nnc[nH]3)cc(N3CCOCC3)cc2n1-c1cc(-c2cn[nH]c2)nc2ccccc12` [Example 167, 4-(1-(2-(1H-pyrazol-4-yl)quinolin-4-yl)-2-methyl-4-(4H-1,2,4-triazol-3-yl)-1H-benzo[d]imidazol-6-yl)morpholine 2,2,2-trifluoroacetate], with 12 nM.
